# According to patent US9000027B2, “Chk1 suppresses a caspase-2 apoptotic response to DNA damage that bypasses p53, bcl-2 and caspase-3” (Dana-Farber Cancer Institute, Inc., priority 2008, dated 2015):
# Tests used:
# p53^+/+ embryos = test: Drug toxicity: AO reactivity and development of inhibitor-treated, non-irradiated p53+/+ embryos; type: in vivo, zebrafish; conditions: 0 Gy; Gö6976 1 μM, KU55933 10 μM, Chk2 Inhibitor II 10 μM
# Source text: (§1) Chk1 inhibitors hold considerable promise in cancer therapy, as they are expected to synergize with genotoxic agents to kill tumor cells lacking functional p53, without affecting normal cells (Kawabe, 2004; Zhou and Bartek, 2004). […] Gö6976 has not been tested in vivo in a vertebrate model system. We therefore evaluated it as well as specific Chk2 and ATM inhibitors in the zebrafish system. Drug toxicity was monitored by scoring the AO reactivity of inhibitor-treated, but non-irradiated, p53^+/+ embryos (left column in FIG. 8A). Unless otherwise indicated, the inhibitors were applied at 18 hpf (that is, immediately before IR) for a total of 6 hours.
# Immediately before IR, 18-hpf embryos were dechorionated and transferred to fresh egg water containing 1% DMSO, with or without the following inhibitors at indicated final concentrations: KU55933 (10 μM; Sigma) (Hickson et al., 2004); Chk2 Inhibitor II (10 μM; Calbiochem) (Arienti et al., 2005); Gö6976 (1 μM; Calbiochem) (Kohn et al., 2003). Unless stated otherwise, embryos were exposed to the inhibitors for 6 hr, transferred to fresh egg water, rinsed five times for 5 min, and labeled with AO. For experiments with Tg(rag2:EGFP-bcl-2) larvae, larvae were incubated in the inhibitor solution at 4 dpf, irradiated at 5 dpf, rinsed at 6 dpf, incubated in fresh inhibitor for an additional 72 hr, and mounted live at 9 dpf for fluorescence microscopic analysis of EGFP expression.
# p53 mutant embryos = test: Live acridine orange (AO) assay of IR-induced cell death in inhibitor-treated p53 mutant embryos; type: in vivo, zebrafish; conditions: 12.5 Gy at 18 hpf; Gö6976 1 μM, KU55933 10 μM, Chk2 Inhibitor II 10 μM; 6 hr
# Source text: as §1
# Live zebrafish embryos were dechorionated in pronase (2.0 mg/mL in egg water) for 3 to 5 min and rinsed five times in egg water at 18 hpf. Embryos were then γ-irradiated (12.5 Gy) using a ^137Cs-irradiator (Gammacell 1000) at 18 hr post-fertilization (hpf). At 24 hpf, embryos were incubated in […] Acridine Orange (AO; Sigma A-6014) in egg water for 30 min at 28.5° C., followed by 3 quick rinses and three 10-min washes in egg water. 5-10 AO-treated embryos were anesthetized in Tricaine ([…]; 3-amino benzoic acid ethylester from Sigma, A-5040) and mounted laterally on a glass slide in warm 0.5% agarose in egg water by streaking a thin layer of the warm agarose across the surface of the slide, and gently pulling the embryos across the agar with a transfer pipette. Lateral images of each zebrafish were acquired on a Zeiss Axioplan2 fluorescence microscope (5× lens), using OpenLab software and a Hammamatsu C4742-95 digital camera. All images were then converted to 8-bit grayscale in NIH ImageJ using the Image>Type>8-bit command. Next, we cropped the images using the Polyonal Selection tool and the Image>Crop functions to include only the trunk of the animal from the head until the beginning of the yolk tube (MO screen; FIG. 1B) or along the entire spinal cord (epistasis analyses; FIGS. 6A & 6D). The area outside of the selected region of interest was cleared using the Edit>Clear Outside command to create a distinct boundary around the area of interest (this is important as it allows the area of interest to be precisely selected after applying the threshold). Next, we split the acquired images into features of interest and background using the Image>Adjust>Threshold function in NIH ImageJ. We then set the maximum threshold of each image to 255 (the lower slide bar in the Threshold window), and adjusted the minimum threshold to the optimized threshold (see below). The threshold was applied using the Black & White display option, with the following Lut options applied; Thresholded pixels to foreground color; Remaining pixels to background color and Black foreground, white background. […] Next, we re-selected the region of interest on the thresholded image, following the bounded image carefully, and analyzed the pixels of the image using the Analyze>Analyze Particles function. The Minimum Size was set to 1px, the Maximum Size was set to the maximum value of 999999 and the Masks option was selected under the Show pull-down menu. The following extended options were also selected: Display Results; Clear Results; Summarize, Size Distribution and Record Starts. If selected by default, the Exclude on Edges option was deselected. The Area Fraction for each image selection was taken from the Summary window, which is the percentage of pixels in the selection that were black. To ensure valid comparisons of the AO labeling results across all experiments, we quantitatively determined a baseline Area Fraction across a large set of simultaneously irradiated and processed p53^+/+ embryos. […] This analysis yielded a mean value for the total labeled surface area of ˜20% (see FIG. 1B, light gray bar). We included at least 6 p53^+/+ non-injected control embryos in all subsequent AO-labeling experiments. […]
# [1] = test system: p53^e7/e7;chk1^MO embryos; test: Epistasis analyses in irradiated p53^e7/e7;chk1^MO embryos (live AO assay); type: in vivo; conditions: 12.5 Gy
# Procedure: To identify such molecules, we performed in vivo epistasis analyses in zebrafish by knocking down or forcing the expression of candidate pathway contributors in p53^e7/e7;chk1^MO embryos.
# Morpholino oligonucleotides (MOs) synthesized by Gene Tools™ LLC, were resuspended in sterile water at a concentration of 1 mM and delivered into zebrafish embryos at the one-cell stage by microinjection. The injection apparatus consisted of a heat-pulled, filamentous RNAse free capillary tube positioned by a micromanipulator (Narishige™ M-125), through which the MO was pressure-injected using a nitrogen air supply controlled by a microinjector (Harvard Apparatus™ PLI-100). MOs were delivered into the yolk of embryos at the one cell stage, just below the cytoplasm. For each previously unpublished MO, the working concentration was determined as the highest dose compatible with normal zebrafish development in the p53^e7/e7 background (maximal subtoxic concentration). […] 100 ng of bcl-xl mRNA in vitro transcribed from full-length zebrafish bcl-xl cDNA cloned into pCS2 were injected as described above. All embryos were grown at 28.5° C. in egg water (5 mM NaCl, 0.17 mM KCl, 0.4 mM CaCl2 and 0.16 mM MgSO4). Knockdown efficiencies for the chk1, chk2, atm, atr, p63, casp8 and casp9 MOs at their maximal subtoxic concentrations are shown in FIG. 10. The sequences of the PCR primers used for RT-PCR-based monitoring of MO efficiencies are available upon request.
# Live zebrafish embryos were dechorionated in pronase (2.0 mg/mL in egg water) for 3 to 5 min and rinsed five times in egg water at 18 hpf. […] At 24 hpf, embryos were incubated in […] Acridine Orange (AO; Sigma A-6014) in egg water for 30 min at 28.5° C., followed by 3 quick rinses and three 10-min washes in egg water. 5-10 AO-treated embryos were anesthetized in Tricaine ([…]; 3-amino benzoic acid ethylester from Sigma, A-5040) and mounted laterally on a glass slide in warm 0.5% agarose in egg water by streaking a thin layer of the warm agarose across the surface of the slide, and gently pulling the embryos across the agar with a transfer pipette. Lateral images of each zebrafish were acquired on a Zeiss Axioplan2 fluorescence microscope (5× lens), using OpenLab software and a Hammamatsu C4742-95 digital camera. All images were then converted to 8-bit grayscale in NIH ImageJ using the Image>Type>8-bit command. Next, we cropped the images using the Polyonal Selection tool and the Image>Crop functions to include only the trunk of the animal from the head until the beginning of the yolk tube (MO screen; FIG. 1B) or along the entire spinal cord (epistasis analyses; FIGS. 6A & 6D). The area outside of the selected region of interest was cleared using the Edit>Clear Outside command to create a distinct boundary around the area of interest (this is important as it allows the area of interest to be precisely selected after applying the threshold). Next, we split the acquired images into features of interest and background using the Image>Adjust>Threshold function in NIH ImageJ. We then set the maximum threshold of each image to 255 (the lower slide bar in the Threshold window), and adjusted the minimum threshold to the optimized threshold (see below). The threshold was applied using the Black & White display option, with the following Lut options applied; Thresholded pixels to foreground color; Remaining pixels to background color and Black foreground, white background. […] Next, we re-selected the region of interest on the thresholded image, following the bounded image carefully, and analyzed the pixels of the image using the Analyze>Analyze Particles function. The Minimum Size was set to 1px, the Maximum Size was set to the maximum value of 999999 and the Masks option was selected under the Show pull-down menu. The following extended options were also selected: Display Results; Clear Results; Summarize, Size Distribution and Record Starts. […]
compound,measurement,setting,value
NC(=O)c1ccc2nc(-c3ccc(Oc4ccc(Cl)cc4)cc3)[nH]c2c1 [Chk2 Inhibitor II],toxicity of the dose used (AO reactivity of non-irradiated embryos),p53^+/+ embryos,relatively toxic
same,radiosensitization of p53 mutants (IR-induced AO labeling),p53 mutant embryos,only modestly radiosensitized
O=c1cc(-c2cccc3c2Sc2ccccc2S3)oc(N2CCOCC2)c1 [KU55933],toxicity of the dose used (AO reactivity of non-irradiated embryos),p53^+/+ embryos,relatively toxic
same,radiosensitization of p53 mutants (IR-induced AO labeling),p53 mutant embryos,only modestly radiosensitized
"atm MO: morpholino against zebrafish atm, splice acceptor i55/e56 (SEQ ID NO: 14) (GAAAACGGCACCACCTGGTAAAAAC; antisense; all phosphorodiamidate morpholino (PMO))",reduction of the mean p53^e7/e7;chk1^MO AO response,[1],~60%
casp2 MO1: morpholino targeting the splice donor site of intron 4 of zebrafish casp2 (SEQ ID NO: 22) (CGCTGAAACCCTGTTGTACCTGTGG; all phosphorodiamidate morpholino (PMO)),"AO labeling, of the mean p53^e7/e7;chk1^MO response",[1]; 7.5 hpIR,16%
same,mean decrease in AO labeling compared with p53^e7/e7;chk1^MO embryos,[1]; three separate experiments,6 fold
"casp2 MO2: second casp2 morpholino, gt e3/i3 (SEQ ID NO: 23) (antisense ACCATACTAAAGTACCAACCATGAG; all phosphorodiamidate morpholino (PMO))",effect on IR-induced cell death (AO labeling) of p53^e7/e7;chk1^MO embryos,[1],significantly reduced IR-induced death
casp8 MO: morpholino against zebrafish casp8 splice donor site (SEQ ID NO: 25) (antisense ACAGGGTTTTAACTCACAGTAGATC; all phosphorodiamidate morpholino (PMO)),effect on IR-induced cell death (AO labeling) of p53^e7/e7;chk1^MO embryos,[1],did not differ
"fadd MO: morpholino against zebrafish FADD, gt e3/i3 (SEQ ID NO: 30) (antisense TAACGTTACCAACCTCGCTCTTTCG; all phosphorodiamidate morpholino (PMO))",effect on IR-induced cell death (AO labeling) of p53^e7/e7;chk1^MO embryos,[1],failed to affect AO staining
mismatch version of casp2 MO1: 5 base-pair mismatch casp2 morpholino (SEQ ID NO: 24) (antisense CGGTGAAAGCCTCTTCTACCTCTGG; all phosphorodiamidate morpholino (PMO)),effect on IR-induced cell death (AO labeling) of p53^e7/e7;chk1^MO embryos,[1],had no effect
"p63 MO: morpholino against zebrafish p63, gt e3/i3 (SEQ ID NO: 28) (antisense AAAGAGTGGCATACCGTCATTGAAC; all phosphorodiamidate morpholino (PMO))",effect on IR-induced cell death (AO labeling) of p53^e7/e7;chk1^MO embryos,[1],failed to compromise IR-induced cell death
p73 MO: morpholino against zebrafish TAp73 atg/5'UTR (SEQ ID NO: 29) (antisense GGATGTTGGACAATCCACCGCAGGG; all phosphorodiamidate morpholino (PMO)),effect on IR-induced cell death (AO labeling) of p53^e7/e7;chk1^MO embryos,[1],failed to compromise IR-induced cell death
"puma MO: morpholino against zebrafish puma, gt e2/i2 (SEQ ID NO: 27) (antisense AACCAAGCATGACTCTTACCCTCTG; all phosphorodiamidate morpholino (PMO))",effect on IR-induced cell death (AO labeling) of p53^e7/e7;chk1^MO embryos,[1],did not significantly affect AO labeling
